SMILES strings stand for the structures.

The record followed here is ChEMBL document CHEMBL1155531, “Structure guided design of 5-arylindazole glucocorticoid receptor agonists and antagonists” (J Med Chem, 2010).

Series [1] can be described thus: Relative fraction unbound in mouse assessed as ratio of fraction unbound in mouse at 0.1 mg/kg, po to IC50 for NF-kappaB transrepression activity in A549 cells expressing MMTV reporter gene. In kind it is ADME, organism-based. Also on record: dose 0.1 mg/kg, route oral. The conditions noted are these: in vivo.
The subject of series [2] is Hepatocyte. The series can be described thus: Toxicity in human hepatocytes assessed as increase in PEPCK mRNA level after 18 hrs by PCR. In kind it is cell-based.
The nature of series [3]: Antiinflammatory activity in human primary synovial fibroblasts assessed as inhibition of IL1-induced IL8 release after 18 hrs by MSD technology. It counts as functional.
A short description of series [4]: Relative fraction unbound in mouse assessed as ratio of fraction unbound in mouse at 1 mg/kg, po to IC50 for NF-kappaB transrepression activity in A549 cells expressing MMTV reporter gene. It counts as ADME, organism-based. Also on record: dose 1 mg/kg, route oral. As to conditions: in vivo. In general terms: In a reporter assay the amount or activity of a reporter protein is the signal.

Series [5] in a line: Antiinflammatory activity in human primary synovial fibroblasts assessed as inhibition of IL1-induced IL6 release after 18 hrs by MSD technology. In kind it is functional.
Series [6] in a line: Relative plasma concentration in mouse assessed as ratio of plasma concentration in mouse at 0.1 mg/kg, po to IC50 for NF-kappaB transrepression activity in A549 cells expressing MMTV reporter gene. It counts as ADME, organism-based. Further details: dose 0.1 mg/kg, route oral. As to conditions: in vivo.
In series [7] the test system is Mus musculus. In words: Inhibition of IL1-induced circulating IL6 release in mouse at 1 mg/kg, po. In kind it is functional.
Series [8] in a line: Relative plasma concentration in mouse assessed as ratio of plasma concentration in mouse at 10 mg/kg, po to IC50 for NF-kappaB transrepression activity in A549 cells expressing MMTV reporter gene. In kind it is ADME, organism-based. Also on record: dose 10 mg/kg, route oral. The conditions noted are these: in vivo.
Series [9] in a line: Toxicity in human skeletal muscle cells assessed as increase in glutamine synthase mRNA level after 18 hrs by PCR.
Series [10] in a line: Antiinflammatory activity in human primary synovial fibroblasts assessed as inhibition of IL1-induced MMP1 release after 18 hrs by MSD technology. It counts as functional.
Series [11] in a line: Relative plasma concentration in mouse assessed as ratio of plasma concentration in mouse at 0.01 mg/kg, po to IC50 for NF-kappaB transrepression activity in A549 cells expressing MMTV reporter gene. In kind it is ADME, organism-based. Further details: dose 0.01 mg/kg, route oral. The conditions noted are these: in vivo.
For series [12], the system named is Mus musculus. In words: Inhibition of IL1-induced circulating IL6 release in mouse at 10 mg/kg, po. It counts as functional.
Series [13] in a line: Relative plasma concentration in mouse assessed as ratio of plasma concentration in mouse at 1 mg/kg, po to IC50 for NF-kappaB transrepression activity in A549 cells expressing MMTV reporter gene. It counts as ADME, organism-based. Also on record: dose 1 mg/kg, route oral. The conditions noted are these: in vivo.
A short description of series [14]: Plasma concentration in mouse bearing mouse NIH-3T3 cells integrated with MMTV reporter gene at 0.1 mg/kg, po after 1 hr. In kind it is ADME, organism-based, NIH3T3. Further details: dose 0.1 mg/kg, route oral.
In series [15] the test system is Mus musculus. In words: Inhibition of IL1-induced circulating IL6 release in mouse at 0.1 mg/kg, po. It counts as functional.
The nature of series [16]: Plasma concentration in mouse bearing mouse NIH-3T3 cells integrated with MMTV reporter gene at 10 mg/kg, po after 1 hr. It counts as ADME, organism-based, NIH3T3. Also on record: dose 10 mg/kg, route oral.
Series [17] is described as follows: Plasma concentration in mouse bearing mouse NIH-3T3 cells integrated with MMTV reporter gene at 0.01 mg/kg, po after 1 hr. In kind it is ADME, organism-based, NIH3T3. Further details: dose 0.01 mg/kg, route oral.
Series [18] deals with Mus musculus. The series can be described thus: Inhibition of IL1-induced circulating IL6 release in mouse at 0.01 mg/kg, po. In kind it is functional.
Series [19] is described as follows: Relative fraction unbound in mouse assessed as ratio of fraction unbound in mouse at 0.01 mg/kg, po to IC50 for NF-kappaB transrepression activity in A549 cells expressing MMTV reporter gene. In kind it is ADME, organism-based. Also on record: dose 0.01 mg/kg, route oral. The conditions noted are these: in vivo.
The nature of series [20]: Plasma concentration in mouse bearing mouse NIH-3T3 cells integrated with MMTV reporter gene at 1 mg/kg, po after 1 hr. Further details: dose 1 mg/kg, route oral. It counts as ADME, organism-based, NIH3T3.
Series [21] in a line: Relative fraction unbound in mouse assessed as ratio of fraction unbound in mouse at 10 mg/kg, po to IC50 for NF-kappaB transrepression activity in A549 cells expressing MMTV reporter gene. In kind it is ADME, organism-based. Further details: dose 10 mg/kg, route oral. The conditions noted are these: in vivo.

As to `C[C@@H]1C[C@H]2[C@@H]3CCC4=CC(=O)C=C[C@]4(C)[C@@]3(F)[C@@H](O)C[C@]2(C)[C@@]1(O)C(=O)CO` [DEXAMETHASONE], the “fold change (FC)” value in [1] stood at 8; in [4] it was 86; in series [6], 40; in series [8] it was 2944; in series [11], 7; in [13], 300. Also, the entries for the “fold change (FC)” value in [19] and in series [21] were 0.4 and 870, respectively. The Activity result in [2] and in series [9] was “Toxic” each time. Also, the results for the IC50 in series [3], in series [5] and in series [10] were 501 pM, 631 pM and 316 pM, respectively. The inhibition in vivo – broadly, the change of the read-out against control, counted positive when it falls – at 1 mg/kg in [7] worked out at 88%. Further, in [12], the inhibition in vivo at 10 mg/kg stood at 83%. The concentration at 1 h in series [14] was found to be 236 nM; in series [16] it was 17700 nM; in series [17], 44 nM; in series [20], 1800 nM. Besides, the inhibition in vivo at 0.1 mg/kg in series [15] is 67%. In series [18], this molecule came in with an inhibition in vivo at 0.01 mg/kg of 24%.
